Assay results reported in patent US20210284647A1, “N-(3-(IMIDAZO[1,2-B]PYRIDAZIN-3-YLETHYNYL)-4-METHYLPHENYL)-5-PHENYL-4,5-DIHYDRO-1H-PYRAZOLE-1-CARBOXAMIDE DERIVATIVE, AND PHARMACEUTICAL COMPOSITION CONTAINING SAME AS ACTIVE INGREDIENT FOR TREATING KINASE-RELATED DISEASES” (VORONOIBIO INC., priority 2018, published 2021).
Counter-ions that a name gives are not always drawn.

What was measured:
human GST-RIPK1 = molecular target: T1, human GST-RIPK1 (Homo sapiens, UniProt Q13546); test: RIPK1 inhibitory activity (ADP-Glo kinase assay); assay type: biochemical; conditions: human GST-RIPK1 10 ng, ATP 50 uM, 25° C. for 4 hours, read-out: Enzyme IC50
T1 construct: GST; purchased signalchem
T1 sequence (Q13546 1-375 limits assumed): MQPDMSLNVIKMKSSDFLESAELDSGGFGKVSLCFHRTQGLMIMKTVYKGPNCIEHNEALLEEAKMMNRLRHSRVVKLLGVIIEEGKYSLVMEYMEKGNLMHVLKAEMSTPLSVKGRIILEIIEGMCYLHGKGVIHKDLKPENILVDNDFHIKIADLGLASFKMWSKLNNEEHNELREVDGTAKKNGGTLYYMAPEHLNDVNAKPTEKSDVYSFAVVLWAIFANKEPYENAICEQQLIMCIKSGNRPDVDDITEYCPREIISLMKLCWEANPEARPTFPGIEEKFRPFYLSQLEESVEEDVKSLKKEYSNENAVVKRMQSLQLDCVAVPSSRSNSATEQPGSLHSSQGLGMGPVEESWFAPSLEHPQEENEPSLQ
Method: The following experiment was performed to evaluate the inhibitory activity of the example compounds according to the present invention against RIPK1 (receptor-interacting serine/threonine protein kinase 1).
The example compound was reacted with the purified human GST-RIPK1 (1375, signalchem) enzyme to evaluate the enzyme inhibitory activity in the following manner. The composition of the reaction buffer used herein was as follows: 40 mM Tris-Hcl pH 7.4, 20 mM MgCl2, 0.5 mg/ml, BSA and 0.5 uM DTT. All the test materials were reacted in the reaction buffer. After reacting human GST-RIPK1 (1375, 10 ng), purified ATP (50 uM) and a specific substrate solution at 25° C. for 4 hours, the enzyme activity was confirmed using an in vitro ADP-Glo™ kinase assay (promega). Luminoscence was measured by reacting the enzyme activity reaction solution, ADP-Glo reaction solution, and enzyme activity detection solution at the ratio of 2:2:1. The degree of enzyme activity inhibition according to the treatment concentration of each compound was calculated based on the fluorescence of the enzyme activity of the solvent control not treated with the compound. At this time, the concentration of each compound inhibiting 50% of the enzyme activity was determined as IC50 (nM). IC50 of each compound was determined with three data sets and calculated using Prism (version 7.01, GraphPad) software.

[1] = tested on: human Jurkat T cells deficient in FADD; test: Cell protection effect under apoptosis-inducing condition (TNF-α); assay type: cell-based; conditions: 40 ng of TNF-α, 50 hours, CellTiter-Glo, read-out: I2.I Cell EC50
Method: The cell protection effect of the compounds according to the present invention under the condition of inducing apoptosis by TNF-α was confirmed by […]. An apoptosis inducing factor such as TNF-α was treated to induce apoptosis of human Jurkat T cells deficient in FADD, to which the example compound was treated, and the cell protection effect was confirmed through the following analysis. Jurkat T cells deficient in FADD were cultured using RPMI medium (Hyclone) containing 10% FBS. When performing the test, the cells were seeded in a 96-well plate containing a medium suitable for the cell line at the density of 10,000 cells/well, and cultured in a 37° C. 5% CO2 incubator for 24 hours. Then, each well was treated with 40 ng of TNF-α, and the compounds prepared in the above examples were each treated with a 3-fold concentration gradient with 1 μM as the highest concentration. As the solvent control, dimethyl sulfoxide (DMSO) was treated at the concentration of 0.05% (v/v), which was the same concentration as that used for the compound treatment. Then, the cells were cultured for 50 hours. To confirm the degree of viability of the cells, a mixture provided in CellTiter-Gloe Luminescent Cell Viability Assay Kit (Promega) was added to the culture medium of the cells, followed by further culture at 37° C. for 30 minutes. Then, luminescence fluorescence was measured. The degree of inhibition of apoptosis induction according to the treatment concentration of each compound was calculated based on the fluorescence of the solvent control cells not treated with the compound. At this time, the concentration of each compound inhibiting 50% was determined as EC50 (μM). EC50 of each compound was calculated using Prism (version 7.01, GraphPad) software.

SMILES	IC50 (human GST-RIPK1) [nM]	EC50 [1] [nM]
O=C(Nc1cccc(C#Cc2cnc3cccnn23)c1)N1N=CCC1c1ccccc1 (stereo not drawn) [Example 19, N-(3-(imidazo[1,2-b]pyridazin-3-ylethynyl)phenyl)-5-phenyl-4,5-dihydro-1H-pyrazole-1-carboxamide 2,2,2-trifluoroacetate]	3.8	0.26
O=C(Nc1cccc(C#Cc2cnc3cccnn23)c1)N1N=CC[C@H]1c1cccc(F)c1 [Example 29, (S)-5-(3-fluorophenyl)-N-(3-(imidazo[1,2-b]pyridazin-3-ylethynyl)phenyl)-4,5-dihydro-1H-pyrazole-1-carboxamide 2,2,2-trifluoroacetate]	5.83	0.3
Nc1cccn2c(C#Cc3cccc(NC(=O)N4N=CCC4c4ccccc4)c3)cnc12 (stereo not drawn) [Example 59, N-(3-((8-aminoimidazo[1,2-a]pyridin-3-yl)ethynyl)phenyl)-5-phenyl-4,5-dihydro-1H-pyrazole-1-carboxamide hydrochloride]	127	17.6
O=C(Nc1cncc(C#Cc2cnc3cccnn23)c1)N1N=CCC1c1ccccc1 (stereo not drawn) [Example 51, N-(5-(imidazo[1,2-b]pyridazin-3-ylethynyl)pyridin-3-yl)-5-phenyl-4,5-dihydro-1H-pyrazole-1-carboxamide 2,2,2--trifluoroacetate]	1.22	1.84
O=C(Nc1cccc(C#Cc2cnc3cccnn23)c1)N1N=CCC1c1cc(F)cc(F)c1 (stereo not drawn) [Example 23, 5-(3,5-difluorophenyl)-N-(3-(imidazo[1,2-b]pyridazin-3-ylethynyl)phenyl)-4,5-dihydro-1H-pyrazole-1-carboxamide 2,2,2-trifluoroacetate]	32.2	1.2
Cc1ccc(NC(=O)N2N=CCC2c2ccncc2)cc1C#Cc1cnc2cccnn12 (stereo not drawn) [Example 18, N-(3-(imidazo[1,2-b]pyridazin-3-ylethynyl)-4-methylphenyl)-5-(pyridin-4-yl)-4,5-dihydro-1H-pyrazole-1-carboxamide 2,2,2-trifluoroacetate]	2.4	0.3
O=C(Nc1cccc(C#Cc2cnc3cccnn23)c1)N1N=CC[C@@H]1c1cc(F)cc(F)c1 [Example 25, (R)-5-(3,5-difluorophenyl)-N-(3-(imidazo[1,2-b]pyridazin-3-ylethynyl)phenyl)-4,5-dihydro-1H-pyrazole-1-carboxamide 2,2,2-trifluoroacetate]	878	364
Cc1ccc(NC(=O)N2N=CCC2c2cccc(Cl)c2)cc1C#Cc1cnc2cccnn12 (stereo not drawn) [Example 14, 5-(3-chlorophenyl)-N-(3-(imidazo[1,2-b]pyridazin-3-ylethynyl)-4-methylphenyl)-4,5-dihydro-1H-pyrazole-1-carboxamide 2,2,2-trifluoroacetate]	5.3	0.2
O=C(Nc1cccc(C#Cc2cnc3cccnn23)c1)N1N=CCC1c1cccc(F)c1 (stereo not drawn) [Example 28, 5-(3-fluorophenyl)-N-(3-(imidazo[1,2-b]pyridazin-3-ylethynyl)phenyl)-4,5-dihydro-1H-pyrazole-1-carboxamide 2,2,2-trifluoroacetate]	10.1	0.8
O=C(Nc1cccc(C#Cc2cnc3cccnn23)c1)N1N=CC[C@@H]1c1cccc(F)c1 [Example 30, (R)-5-(3-fluorophenyl)-N-(3-(imidazo[1,2-b]pyridazin-3-ylethynyl)phenyl)-4,5-dihydro-1H-pyrazole-1-carboxamide 2,2,2-trifluoroacetate]	399	321
Cc1ccc(C(=O)N2N=CCC2c2ccccc2)cc1C#Cc1cnc2cccnn12 (stereo not drawn) [Example 54, (3-(imidazo[1,2-b]pyridazin-3-ylethynyl)-4-methylphenyl)(5-phenyl-4,5-dihydro-1H-pyrazol-1-yl)methanone 2,2,2-trifluoroacetate]	32.6	> 1000
Cn1cc(Nc2cccn3c(C#Cc4cccc(NC(=O)N5N=CCC5c5ccccc5)c4)cnc23)cn1 (stereo not drawn) [Example 67, N-(3-((8-((1-methyl-1H-pyrazol-4-yl)amino)imidazo[1,2-a]pyridin-3-yl)ethynyl)phenyl)-5-phenyl-4,5-dihydro-1H-pyrazole-1-carboxamide 2,2,2-trifluoroacetate]	19	0.08
CC(=O)Nc1cccn2c(C#Cc3cccc(NC(=O)N4N=CCC4c4ccccc4)c3)cnc12 (stereo not drawn) [Example 60, N-(3-((8-acetamidoimidazo[1,2-a]pyridin-3-yl)ethynyl)phenyl)-5-phenyl-4,5-dihydro-1H-pyrazole-1-carboxamide]	64.1	0.4
O=C(Nc1cccc(C#Cc2cnc3cccnn23)c1)N1N=CCC1c1cc2ccccc2cn1 (stereo not drawn) [Example 41, N-(3-(imidazo[1,2-b]pyridazin-3-ylethynyl)phenyl)-5-(isoquinolin-3-yl)-4,5-dihydro-1H-pyrazole-1-carboxamide]	33	64.6

Continued by falling IC50 (human GST-RIPK1), values first:

IC50 (human GST-RIPK1) [nM]	EC50 [1] [nM]	SMILES
801	326	Cc1ccc(NC(=O)N2N=CC[C@@H]2c2cccc(F)c2)cc1C#Cc1cnc2cccnn12 [Example 10, (R)-5-(3-fluorophenyl)-N-(3-(imidazo[1,2-b]pyridazin-3-ylethynyl)-4-methylphenyl)-4,5-dihydro-1H-pyrazole-1-carboxamide 2,2,2-trifluoroacetate]
775	> 1000	O=C(Nc1cc(C#Cc2cnc3cccnn23)ccn1)N1N=CCC1c1ccccc1 (stereo not drawn) [Example 52, N-(4-(imidazo[1,2-b]pyridazin-3-ylethynyl)pyridin-2-yl)-5-phenyl-4,5-dihydro-1H-pyrazole-1-carboxamide 2,2,2-trifluoroacetate]
134	1.9	Cc1ccc(NC(=O)N2N=CCC2c2ccc(C(F)(F)F)cc2)cc1C#Cc1cnc2cccnn12 (stereo not drawn) [Example 7, N-(3-(imidazo[1,2-b]pyridazin-3-ylethynyl)-4-methylphenyl)-5-(4-(trifluoromethyl)phenyl)-4,5-dihydro-1H-pyrazole-1-carboxamide 2,2,2-trifluoroacetate]
83.6	0.59	Cc1ccc(NC(=O)N2N=CCC2c2cccc(F)c2)cc1C#Cc1cnc2cccnn12 (stereo not drawn) [Example 8, 5-(3-fluorophenyl)-N-(3-(imidazo[1,2-b]pyridazin-3-ylethynyl)-4-methylphenyl)-4,5-dihydro-1H-pyrazole-1-carboxamide 2,2,2-trifluoroacetate]
18.9	43	O=C(Nc1cccc(C#Cc2cnc3cccnn23)c1)N1N=CCC1c1cccc(Cl)c1 (stereo not drawn) [Example 34, 5-(3-chlorophenyl)-N-(3-(imidazo[1,2-b]pyridazin-3-ylethynyl)phenyl)-4,5-dihydro-1H-pyrazole-1-carboxamide 2,2,2-trifluoroacetate]
8.8	0.09	O=C(Nc1ccc(F)c(C#Cc2cnc3cccnn23)c1)N1N=CC[C@H]1c1ccccc1 [Example 45, (S)—N-(4-fluoro-3-(imidazo[1,2-b]pyridazin-3-ylethynyl)phenyl)-5-phenyl-4,5-dihydro-1H-pyrazole-1-carboxamide 2,2,2-trifluoroacetate]
4.83	0.63	O=C(Nc1cccc(C#Cc2cnc3cccnn23)c1)N1N=CC[C@H]1c1ccc(F)cc1 [Example 32, (S)-5-(4-fluorophenyl)-N-(3-(imidazo[1,2-b]pyridazin-3-ylethynyl)phenyl)-4,5-dihydro-1H-pyrazole-1-carboxamide 2,2,2-trifluoroacetate]
